Tested on: Human umbilical vein endothelial cells (HUVEC)
Assay: Evaluation of NO-production-promoting activity (NO2/NO3 Assay Kit-FX)
Type: cell-based
Conditions: 24 hours, sample solution 10 to 1000 μg/mL in medium containing 1% DMSO, culture supernatant
Protocol: The purple-tea sample and the GHG sample obtained in the above example were dissolved in a medium containing 1% DMSO (concentration: 10 to 1000 μg/mL) to prepare a sample solution. A medium containing 1% DMSO was used for a control.
Human umbilical vein endothelial cells (HUVEC) (6.2×10^4 cells/500 μL) were seeded in 24-well plates, pre cultured for 1 day, then the medium was changed (450 μl). After that, a sample solution of 50 μL was added to each well to react for 24 hours. After the reaction, the culture supernatant was subjected to a measurement of a NO-production amount. For the measurement of the NO-production amount, “NO2/NO3 Assay Kit-FX” (trade name, manufactured by Dojindo Molecular Technologies, Inc.) was used. The results are shown in FIG. 2 (purple-tea extract) and FIG. 3 (GHG).
The NO2/NO3 Assay Kit-FX is a kit used for indirectly measuring NO in a sample by the fluorescence method, using the reaction between NO2^− and DAN (2,3-Diaminonaphthalene).

**Q.** How did the “NO-production promoting effect (NO2−, NO3− and NO total production)” value turn out when `O=C(OC1OC2COC(=O)c3cc(O)c(O)c(O)c3-c3c(cc(O)c(O)c3O)C(=O)OC2C(O)C1OC(=O)c1cc(O)c(O)c(O)c1)c1cc(O)c(O)c(O)c1` [GHG, 1,2-di-O-galloyl-4,6-O-(S)-hexahydroxydiphenoyl-β-D-glucose] was run?
**A.** Its value is “has a NO3− and a NO-total production-promoting effect”.
